Assay results as given in patent US20120014918A1, “ADDITION SALTS OF AMINES CONTAINING HYDROXYL AND/OR CARBOXYLIC GROUPS WITH AMINO NICOTINIC ACID DERIVATIVES AS DHODH INHIBITORS” (priority 2009, published 2012).
Where a name gives a salt, the structure may show the parent alone.

Legend:
Format in all cases: physicochemical
Water-solubility test = details: 25° C. (room temperature), expressed as acid
[1] = Dynamic Vapour Sorption (DVS) profiles; details: 25° C.; for Hygroscopicity according to the DVS pattern: sorption 0 to 95% RH and desorption; for Hysteresis in the DVS pattern: sorption/desorption isotherms; for Mass increase at 80% relative humidity: 80% RH; for Mass increase at 90% relative humidity: 90% RH
Description: Dynamic Vapour Sorption (DVS) profiles were obtained using an Igasorp Hiden Isochema instrument (serial number IGA-SA-066). After an initial stabilization period, at least two isotherms (at 25° C.) were obtained for each sample: a moisture sorption from 0 to 95% relative humidity and moisture desorption from 95% relative humidity to dryness. Both isotherms were performed in 10% humidity steps, with a minimum time of 10 minutes and a maximum time of 30 minutes for each step.

[2] = Differential scanning calorimetry (DSC) thermograms; details: heated 30 to 350° C. at 10° C./min
Description: The differential scanning calorimetry (DSC) thermograms analyses were obtained using a DSC-821 Mettler-Toledo instrument, serial number 5117423874. Samples were weighed into an aluminium pan, an aluminium lid placed on top of the sample and compressed with a brass rod. Samples were equilibrated at 30° C. and heated at 10° C./min to 350° C. The instrument was calibrated using indium and zinc standards.

Row | Structure (SMILES) | Water Solubility @ 25° C. (mg/mL as acid) (Water-solubility test) [mg/mL] | Hygroscopicity according to the DVS pattern [1] | Hysteresis in the DVS pattern [1] | Stability (no conversion into other polymorphs, no decomposition) from DSC thermogram [2] | Mass increase at 80% relative humidity [1] [%] | Mass increase at 90% relative humidity [1] [%]
1 | COc1cccc(-c2cc(F)c(Nc3ncccc3C(=O)O)c(F)c2)c1 [C1, 2-[(3,5-difluoro-3′-methoxy-1,1′-biphenyl-4-yl)amino]nicotinic acid, reference compound] | 0.004 |  |  |  |  | 
2 | CCOc1cccc(-c2ccc(Nc3ncccc3C(=O)O)c(OC(F)(F)F)c2)c1 [C2, 2-{[3′-ethoxy-3-(trifluoromethoxy)-1,1′-biphenyl-4-yl]amino}nicotinic acid, reference compound] | 0.008 |  |  |  |  | 
3 | Cc1c(-c2ccccc2)cc(F)c(Nc2ncccc2C(=O)O)c1F [C3, 2-[(3,5-difluoro-2-methyl-1,1′-biphenyl-4-yl)amino]nicotinic acid, reference compound] | 0.002 |  |  |  |  | 
4 | COc1cccc(-c2cc(F)c(Nc3ncccc3C(=O)O)c(F)c2)c1 [Ex. 1, 2-[(3,5-difluoro-3′-methoxy-1,1′-biphenyl-4-yl)amino]nicotinic acid, meglumine salt] | 2.810 | not hygroscopic | no hysteresis | high stability |  | 
5 | COc1cccc(-c2cc(F)c(Nc3ncccc3C(=O)O)c(F)c2)c1 [Ex. 2, 2-[(3,5-difluoro-3′-methoxy-1,1′-biphenyl-4-yl)amino]nicotinic acid, tromethamine salt] | 0.870 | not hygroscopic | no hysteresis | high stability |  | 
6 | CCOc1cccc(-c2ccc(Nc3ncccc3C(=O)O)c(OC(F)(F)F)c2)c1 [Ex. 3, 2-(3′-ethoxy-3-(trifluoromethoxy)biphenyl-4-ylamino)nicotinic acid, meglumine salt] | 0.478 | slightly hygroscopic | no hysteresis | high stability | 2.7 | 6.2
7 | Cc1c(-c2ccccc2)cc(F)c(Nc2ncccc2C(=O)O)c1F [Ex. 4, 2-(3,5-difluoro-2-methylbiphenyl-4-ylamino)nicotinic acid, meglumine salt] | 0.210 | not hygroscopic |  |  |  | 
8 | Cc1c(-c2ccccc2)cc(F)c(Nc2ncccc2C(=O)O)c1F [Ex. 5, 2-(3,5-difluoro-2-methylbiphenyl-4-ylamino)nicotinic acid, tromethamine salt] | 0.490 | a bit hygroscopic | without hysteresis |  | 5.7 | 14.9
9 | COc1cccc(-c2cc(F)c(Nc3ncccc3C(=O)O)c(F)c2)c1 [Ex. 6, 2-[(3,5-difluoro-3′-methoxy-1,1′-biphenyl-4-yl)amino]nicotinic acid, L-arginine salt] |  |  |  | high stability |  | 
